# In patent US10960054B2, “Fracture targeted bone regeneration through parathyroid hormone receptor stimulation” (Purdue Research Foundation, priority 2016, dated 2021):
# Tests used:
# [1] = biological target: T1, PTHR1 (Homo sapiens, UniProt Q03431); conditions: time-course washout assay; cited from earlier work
# T1 sequence (Q03431 27-593): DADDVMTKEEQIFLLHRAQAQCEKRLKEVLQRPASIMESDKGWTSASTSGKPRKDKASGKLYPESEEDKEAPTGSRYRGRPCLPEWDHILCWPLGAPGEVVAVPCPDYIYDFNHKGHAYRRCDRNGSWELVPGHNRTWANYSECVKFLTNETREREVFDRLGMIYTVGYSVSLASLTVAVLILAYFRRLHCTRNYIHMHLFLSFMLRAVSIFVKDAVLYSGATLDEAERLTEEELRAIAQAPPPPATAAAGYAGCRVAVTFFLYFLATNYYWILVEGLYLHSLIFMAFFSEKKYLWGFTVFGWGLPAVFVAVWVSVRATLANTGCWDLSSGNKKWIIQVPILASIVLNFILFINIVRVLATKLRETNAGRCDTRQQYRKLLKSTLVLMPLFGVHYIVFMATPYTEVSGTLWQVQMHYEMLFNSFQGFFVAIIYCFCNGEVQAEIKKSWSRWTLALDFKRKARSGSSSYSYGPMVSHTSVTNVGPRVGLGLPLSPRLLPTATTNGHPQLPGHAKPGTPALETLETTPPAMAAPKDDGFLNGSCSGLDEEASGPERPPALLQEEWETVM
# [2] = biological target: T2, PTHR1 (R^0 conformation) (Homo sapiens, UniProt Q03431); conditions: direct comparative studies; cited from earlier work
# T2 sequence (Q03431 27-593): T1 sequence (Q03431 27-593)
# [3] = system: femoral fracture callus; assay: Murine stabilized femoral fracture, microCT analysis of fracture callus; type: in vivo, mice; conditions: for fracture callus densities / bone volume: 3 nmol/kg/day subcutaneous, 14, 28 or 56 days, FIG. 7
# [4] = system: liver and kidneys; assay: Blind histopathology of liver and kidney after 28 days of treatment; conditions: 31 nmol/kg/day subcutaneous
# Method: Referring now to Table 1, mice were treated with 31 nmol/kg/day subcutaneous injections of PTHrPD10 (“Targeted Drug”) or saline. Swiss ND4 mice were treated for 28 days. Mice were sacrificed at the end of the study and liver and kidneys were excised. Organs were fixed in formalin and paraffin sections were made from each. A veterinary pathologist performed a randomized blind analysis on the organs.
# [5] = system: MC3T3E1 cells; assay: Gene expression ratio of bone markers in MC3T3E1 cells; type: cell-based
# Method: (§1) Referring now to FIG. 4, alkaline phosphatase (ALP) expression ratio for both targeted and non-targeted PTHrP were analyzed in MC3T3E1 cells. The ALP ratio is calculated by (Treated ALP expression/Vehicle control ALP expression). Higher expression levels are associated with greater osteoblast activity and is a key protein involved in bone mineralization.
# as §1, with “5, osteopontin (OPN)” for “4, alkaline phosphatase (ALP)”, “OPN” for “ALP”
# Referring now to FIG. 6, gene expression ratio of several key bone markers for both targeted and non-targeted PTHrP were analyzed in MC3T3E1 cells. Activity markers include alkaline phosphatase (ALP), Collagen I-alpha (Col1-alpha), osteocalcin (OC), osteoprotegerin (OPG), osteopontin (OPN, and Osterix (OSX). The gene expression ratio is calculated by (Treated gene expression/Vehicle control gene expression). The targeted PTHrP has activity as low as 1 pM.
sequence,measurement,setting,value
SVSEIQLMHNLGKHLNSMERVEWLRKKLQDVHNF [PTH(1-34)],duration of the cAMP response,[1],more prolonged response than PTHrP(1-36)
same,affinity for the R^0 state,[2],much higher affinity for R^0 than PTHrP(1-36)
SVSEIQLMHNLGKHLNSMERVEWLRKKLQDVHNFVALGAPLAPRDADDDDDDDDDD (PTH1-46D10) [PTH 1-46D10],bone density (microCT),"[3]; 2 weeks, fracture callus, vs saline, FIG. 3",statistically denser than saline controls
VSEHQLLHDKGKSIQDLRRRFFLHHLIAEIHTAGIRATSEVSPNSDDDDDDDDDD [PTHrP1-46D10],fracture callus densities / bone volume,[3]; listed as targeted PTHrP,Greater densities can be observed in the targeted PTHrP over the free PTHrp at every time point
same,fracture callus densities / bone volume,[3]; listed as targeted drug,not only improves fracture healing but that it also accelerates fracture healing
same,bone densities around fractures (microCT),"[3]; 31 nmol/kg/day, daily for 4 weeks, closed femoral fracture, FIG. 1",increased bone densities around fractures significantly higher than that of free PTHrP and Saline
same,trabecular spacing (microCT),"[3]; 4 weeks, fracture callus, vs saline, FIG. 2",statistically tighter spacing than does the saline control
same,"toxicity, overall pathologist assessment of liver and kidney",[4],No detectable toxicity was observed
same,concentration at which gene expression activity is seen (activity as low as),"[5]; ALP, Col1-alpha, OC, OPG, OPN, OSX, FIG. 6",≤ 1 pM
same,osteopontin (OPN) expression ratio,"[5]; treated/vehicle control, FIG. 5",does not reduce the efficacy of the drug
same,alkaline phosphatase (ALP) expression ratio,"[5]; treated/vehicle control, standardized to GAPDH, FIG. 4",does not reduce the efficacy of the drug
